We go through 24 compounds from patent US12590062B2, “PD-1/PD-L1 inhibitors” (Gilead Sciences, Inc., priority 2017, dated 2026).

Usually IC50 stands for the concentration that gives 50% inhibition. For orientation: AC50 means the midpoint of the concentration-response curve, whichever way the signal moves. One may read the EC50 as the midpoint of the concentration-response curve.

In experiment [1] the target is PD-1/PD-L1 (Homo sapiens, UniProt Q9NZQ7). The experiment can be described thus: PD-1/PD-L1 biochemical protein-protein interaction assay (ALPHA). In kind it is binding. Particulars: 0.3 nM His tagged PD-L1, 2.5 nM biotinylated Fc-PD-1, 60 minutes at 25° C., read-out: IC50 PD-L1-PD-1 Alpha IC50-mono PD-L1-fcP-D1. The essentials: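 Extracellular-domain binding of His-tagged PD-L1 (0.3 nM final) to biotinylated Fc-PD-1 (2.5 nM final) was measured by ALPHA in 25 mM Hepes pH 7.4, 150 mM NaCl, 3.4 mM EDTA, 0.005% Tween 20, 0.01% BSA. After 60 min at 25° C, anti-His acceptor and streptavidin donor beads were added; IC50 from four-parameter fits.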
PD-1/PD-L1, sequence (Q9NZQ7 19-238 limits assumed): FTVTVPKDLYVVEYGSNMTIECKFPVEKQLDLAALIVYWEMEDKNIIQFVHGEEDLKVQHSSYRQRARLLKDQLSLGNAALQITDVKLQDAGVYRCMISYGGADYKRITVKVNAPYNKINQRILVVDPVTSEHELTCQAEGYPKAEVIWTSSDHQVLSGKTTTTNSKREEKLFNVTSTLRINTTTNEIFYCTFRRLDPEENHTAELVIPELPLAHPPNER

The target of experiment [2] is T1, PD-L1 (Homo sapiens, UniProt Q9NZQ7).
T1 construct: determine if they can specifically dimerize the extracellular domains of PD-L1
T1 sequence (Q9NZQ7 19-238 limits assumed): as above
T1 sequence (Q9NZQ7 19-238 limits assumed): as above
Put plainly: PD-L1/PD-L1 dimerization biochemical protein-protein interaction assay (ALPHA). The experiment is classed as binding. As to conditions: compound-induced PD-L1 dimerization, head prints '1 nM' (0.5 nM His-tagged PD-L1 and 0.5 nM FLAG-tagged PD-L1), read-out: AC50 PDL1 Dimer Alpha 1 nM. The essentials:
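ALPHA proximity assay of compound-induced dimerization of 0.5 nM His-tagged and 0.5 nM FLAG-tagged PD-L1 extracellular domains in Hepes pH 7.4 buffer, 2 h at 25 °C. Anti-His acceptor then anti-FLAG donor beads, 60 min each; AC50 from four-parameter fit.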

Experiment [3] concerns the target T2, PD-1/PD-L1 interaction (Homo sapiens, UniProt Q9NZQ7).
T2 construct: expressed in transfected cells; host or cells: CHO cells (aAPC-PD-L1) co-cultured with Jurkat cells overexpressing PD-1 and an NFAT-luciferase reporter
The experiment can be described thus: PD-1/PD-L1 NFAT reporter co-culture assay. As to conditions: Jurkat PD-1 NFAT-luciferase cells co-cultured with aAPC-PD-L1 CHO cells, 6 hrs at 37° C.; read-out: EC50 NFAT Luciferase. The experiment is classed as cell-based. The essentials: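 Compounds are scored by restoration of NFAT-luciferase signal in PD-1-expressing Jurkat cells cultured 6 h at 37 °C on CHO cells presenting anti-CD3 and PD-L1; EC50 values derive from four-parameter curve fitting.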

Bounds are passed on as bounds.

T2 sequence (Q9NZQ7 19-290): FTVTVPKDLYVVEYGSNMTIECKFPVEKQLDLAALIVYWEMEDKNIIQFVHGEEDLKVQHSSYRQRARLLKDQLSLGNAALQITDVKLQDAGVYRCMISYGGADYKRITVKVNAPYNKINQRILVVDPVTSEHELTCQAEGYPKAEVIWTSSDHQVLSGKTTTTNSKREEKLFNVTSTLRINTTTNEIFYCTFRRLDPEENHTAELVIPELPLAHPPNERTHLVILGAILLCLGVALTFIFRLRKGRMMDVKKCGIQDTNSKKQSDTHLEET

For the compound `CC(C)(NCc1cc(Cl)c(O[C@H]2CCc3c(-c4cccc(-c5ccc(OCCN6CC[C@@H](O)C6)cc5)c4Cl)cccc32)nc1OCc1cncc(C#N)c1)C(=O)O` [Example 667], the IC50 in experiment [1] was 0.064 nM. The concentration at half-maximal activity (AC50) in experiment [2] turned out to be 17 nM. Besides, the EC50 in experiment [3] turned out to be 1890 nM.

Take `C[C@@](CO)(NCc1cc(Cl)c(O[C@H]2CCc3c(-c4cccc(-c5ccc(OCCN6CC[C@@H](O)C6)cc5)c4Cl)cccc32)nc1OCc1cncc(C#N)c1)C(=O)O` [Example 668]: in experiment [1], the concentration for half-maximal inhibition (IC50) was 0.064 nM. The AC50 in experiment [2] is 16.5 nM. Besides, the EC50 in experiment [3] was determined as 886 nM.

Take `C[C@@](CO)(NCc1cc(Cl)c(O[C@H]2CCc3c(-c4cccc(-c5ccc(OCCN6CC[C@@H](O)C6)cc5)c4Cl)cccc32)nc1OCc1cncc(S(C)(=O)=O)c1)C(=O)O` [Example 669]: the IC50 in experiment [1] turned out to be 0.064 nM. For the same compound, the AC50 in experiment [2] is 17.2 nM. For the same compound, the EC50 in experiment [3] came to 637 nM.

Regarding `CN1CCCC1c1ccc(-c2cccc(-c3cccc4c3CC[C@@H]4Oc3nc(OCc4cncc(C#N)c4)c(CNCCO)cc3Cl)c2Cl)cc1` (stereo partly drawn) [Example 670], the IC50 in experiment [1] was found to be 1.74 nM. The concentration at half-maximal activity (AC50) in experiment [2] turned out to be 74.8 nM. Besides, the EC50 in experiment [3] was at least 50000 nM.

On to `C[C@@](CO)(NCc1cc(Cl)c(O[C@H]2CCc3c(-c4cccc(-c5ccc(S(N)(=O)=O)cc5)c4Cl)cccc32)nc1OCc1cncc(C#N)c1)C(=O)O` [Example 671], for which the half-inhibitory concentration (IC50) in experiment [1] amounted to 0.159 nM. Besides, the AC50 in experiment [2] was at least 10000 nM. The concentration giving a half-maximal response (EC50) in experiment [3] is 235 nM.

`CN1CCCC1c1ccc(-c2cccc(-c3cccc4c3CC[C@@H]4Oc3nc(OCc4cncc(C#N)c4)c(CNC(C)(C)C(=O)O)cc3Cl)c2Cl)cc1` (stereo partly drawn) [Example 672]: the IC50 in experiment [1] is 0.064 nM. The AC50 in experiment [2] was determined as 24.5 nM. In experiment [3], the EC50 was found to be 435 nM.

On to `C[C@@](CO)(NCc1ccc(O[C@H]2CCc3c(-c4cccc(OCCCN5CC[C@@H](O)C5)c4Cl)cccc32)nc1OCc1cncc(C#N)c1)C(=O)O` [Example 673], for which the IC50 in experiment [1] turned out to be 0.154 nM. Besides, the AC50 in experiment [2] was determined as 399 nM. Besides, in experiment [3], the EC50 worked out at 583 nM.

In the case of `C[C@@](CO)(NCc1cc(Cl)c(O[C@H]2CCc3c(-c4cccc(-c5ccc(OCCNCCO)cc5)c4Cl)cccc32)nc1OCc1cncc(C#N)c1)C(=O)O` [Example 674], in experiment [1], the IC50 stood at 0.064 nM. Further, the AC50 in experiment [2] amounted to 11.3 nM. In experiment [3], the 50% effective concentration (EC50) is 44 nM.

As to `Cc1c(-c2ccc(OCCNC[C@@H](O)CC(=O)O)cc2)cccc1-c1cccc2c1CC[C@@H]2Oc1ccc(CNC[C@@H](O)CC(=O)O)c(OCc2cncc(C#N)c2)n1` [Example 677], the IC50 in experiment [1] amounted to 0.063 nM. In experiment [2], the concentration at half-maximal activity (AC50) is 180 nM. For the same compound, in experiment [3], the EC50 was 145 nM.

As to `COc1nc(O[C@H]2CCc3c(-c4cccc5c4CC[C@@H]5Oc4ccc(CNC[C@@H](O)CC(=O)O)c(OCc5cncc(C#N)c5)n4)cccc32)c(Br)cc1CNC[C@@H](O)CC(=O)O` [Example 678], the IC50 in experiment [1] turned out to be 0.105 nM. For the same compound, the AC50 in experiment [2] is 254 nM. In addition, the EC50 in experiment [3] was determined as 264 nM.

Consider `COc1nc(O[C@H]2CCc3c(-c4cccc5c4CC[C@@H]5Oc4nc(OCc5cncc(C#N)c5)c(CNC[C@@H](O)CC(=O)O)cc4Br)cccc32)c(Br)cc1CNC[C@@H](O)CC(=O)O` [Example 679], for which, in experiment [1], the IC50 was found to be 0.058 nM. The AC50 in experiment [2] amounted to 101 nM. In addition, the EC50 in experiment [3] worked out at 64 nM.

`COc1nc(-c2cccc(-c3cccc4c3CC[C@@H]4Oc3nc(OCc4cncc(C#N)c4)c(CN[C@@](C)(CO)C(=O)O)cc3Cl)c2Cl)ccc1CN1CC2(C1)CN(C(=O)OC(C)(C)C)C2` [Example 682]: the concentration for half-maximal inhibition (IC50) in experiment [1] was determined as 0.421 nM. In addition, the AC50 in experiment [2] was 194 nM. Further, the EC50 in experiment [3] stood at 243 nM.

Take `COc1nc(-c2cccc(-c3cccc4c3CC[C@@H]4Oc3nc(OCc4cncc(C#N)c4)c(CNC[C@@H](O)CC(=O)O)cc3Cl)c2Cl)ccc1CN1CC2(CCC(=O)N2)C1` [Example 683]: the IC50 in experiment [1] was 0.104 nM. The AC50 in experiment [2] worked out at 116 nM. In addition, the EC50 in experiment [3] was 98 nM.

Turning to `COc1nc(-c2cccc(-c3cccc4c3CC[C@@H]4Oc3nc(OCc4cncc(C#N)c4)c(CN[C@@](C)(CO)C(=O)O)cc3Cl)c2Cl)ccc1CN1CC2(CCC(=O)N2)C1` [Example 684], in experiment [1], the IC50 was 0.064 nM. Further, in experiment [2], the AC50 is 41.2 nM. Moreover, the half-maximal effective concentration (EC50) in experiment [3] stood at 36 nM.

In the case of `C[C@@](CO)(NCc1ccc(O[C@H]2CCc3c(-c4cccc5c4CC[C@@H]5Oc4nc(OCc5cncc(C#N)c5)c(CN[C@@](C)(CO)C(=O)O)cc4Cl)cccc32)cc1)C(=O)O` [Example 685], in experiment [1], the IC50 worked out at 0.552 nM. The half-maximal activity concentration (AC50) in experiment [2] is 1820 nM. Moreover, in experiment [3], the EC50 was determined as 625 nM.

`C[C@@](CO)(NCc1cc(Cl)c(O[C@H]2CCc3c(-c4cccc5c4CC[C@@H]5Oc4nc(OCc5cc(C#N)cc(C#N)c5)c(CN[C@@](C)(CO)C(=O)O)cc4Cl)cccc32)nc1OCc1cc(C#N)cc(C#N)c1)C(=O)O` [Example 686]: in experiment [1], the IC50 worked out at 0.282 nM. The AC50 in experiment [2] was found to be 137 nM. The EC50 in experiment [3] worked out at 46 nM.

Consider `C[C@@](CO)(NCc1cc(Cl)c(O[C@H]2CCc3c(-c4cccc5c4CC[C@@H]5Oc4ccc(CN5CC[C@@H](O)C5)c(OCc5cncc(S(C)(=O)=O)c5)n4)cccc32)nc1OCc1cncc(S(C)(=O)=O)c1)C(=O)O` [Example 687], for which, in experiment [1], the IC50 is 0.659 nM. In addition, the AC50 in experiment [2] turned out to be 3100 nM. The EC50 in experiment [3] turned out to be 605 nM.

Turning to `C[C@@](CO)(NCc1cc(Cl)c(O[C@H]2CCc3c(-c4cccc5c4CC[C@@H]5Oc4nc(OCc5cncc(S(C)(=O)=O)c5)c(CN5CC[C@@H](O)C5)cc4Cl)cccc32)nc1OCc1cncc(S(C)(=O)=O)c1)C(=O)O` [Example 688], the IC50 in experiment [1] is 0.412 nM. Moreover, the AC50 in experiment [2] was found to be 141 nM. The half-maximal effective concentration (EC50) in experiment [3] is at least 50000 nM.

For the compound `CS(=O)(=O)c1cncc(COc2nc(O[C@H]3CCc4c(-c5cccc6c5CC[C@@H]6Oc5nc(OCc6cncc(S(C)(=O)=O)c6)c(CN6CC[C@@H](O)C6)cc5Cl)cccc43)c(Cl)cc2CN2CC[C@@H](O)C2)c1` [Example 689], the IC50 in experiment [1] was 0.064 nM. Also, in experiment [2], the AC50 was 114 nM. The EC50 in experiment [3] was found to be 139 nM.

On to `C[C@@](CO)(NCc1cc(Cl)c(O[C@H]2CCc3c(-c4cccc5c4CC[C@@H]5Oc4nc(OCc5cncc(S(C)(=O)=O)c5)c(CNCCO)cc4Cl)cccc32)nc1OCc1cncc(S(C)(=O)=O)c1)C(=O)O` [Example 690], for which the IC50 in experiment [1] was found to be 0.28 nM. Moreover, the AC50 in experiment [2] worked out at 80.8 nM. Moreover, the EC50 in experiment [3] amounted to 287 nM.

Consider `C[C@@](CO)(NCc1cc(Cl)c(O[C@H]2CCc3c(-c4cccc(-c5ccc6c(c5)C[C@H](N)C6)c4Cl)cccc32)nc1OCc1cncc(C#N)c1)C(=O)O` [Example 695], for which the IC50 in experiment [1] is 0.064 nM. The AC50 in experiment [2] was determined as 21.6 nM. For the same compound, in experiment [3], the 50% effective concentration (EC50) was 26 nM.

As to `C[C@@](CO)(NCc1cc(Cl)c(O[C@H]2CCc3c(-c4cccc(-c5ccc6c(c5)C[C@@H](N)C6)c4Cl)cccc32)nc1OCc1cncc(C#N)c1)C(=O)O` [Example 696], in experiment [1], the IC50 turned out to be 0.099 nM. Further, the concentration at half-maximal activity (AC50) in experiment [2] amounted to 16.9 nM. For the same compound, the EC50 in experiment [3] was found to be 12 nM.

As to `COc1nc(-c2cccc(-c3cccc4c3CC[C@@H]4Oc3nc(OC)c(CN[C@@](C)(CO)C(=O)O)cc3Br)c2Br)ccc1CNC[C@@H]1CCC(=O)N1` [Example 697], the IC50 in experiment [1] was 0.068 nM. Also, the AC50 in experiment [2] was 51 nM. Further, the EC50 in experiment [3] came to 50 nM.

For `COc1nc(-c2cccc(-c3cccc4c3CC[C@@H]4Oc3nc(OC)c(CNC[C@@H]4CCC(=O)N4)cc3Br)c2Br)ccc1CNC[C@@H]1CCC(=O)N1` [Example 698], the IC50 in experiment [1] was found to be 0.704 nM. The AC50 in experiment [2] came out at 111 nM. Besides, in experiment [3], the EC50 worked out at 152 nM.
